Data from patent US7034035B2, “Fungicidal mono-, bi-, and tri-cycloheteroalkyl amides and their compositions, methods of use and preparation” (priority 1999, dated 2006).
Read-outs that look alike come from different tables or passages of the source.

Tests used:
[1] = test system: Puccinia recondita—PUCCRT; experiment: Brown Rust of Wheat, in vivo whole plant, 24 Hour Protectant; conditions: Puccinia, inoculated after 24 hours, read-out: PUCCRT in vivo 1 Day Protectant
[2] = test system: Rhizoctonia solani (RHIZSO); experiment: microbe, parasite or virus in culture; assay type: cell-based
Ustilago maydis (USTIMA) = experiment: microbe, parasite or virus in culture; assay type: cell-based
[3] = test system: Leptosphaeria nodorum—LEPTNO; experiment: Glume Blotch of Wheat, in vivo whole plant, 24 Hour Protectant; conditions: Leptosphaeria, 24 h, wheat (cultivar Yuma), sprayed at 100 ppm, inoculated after 24 hours; control of fungal infection vs untreated plants; read-out: LEPTNO in vivo 1 Day Protectant
[4] = wheat (cultivar Yuma), sprayed at 100 ppm, control of fungal infection vs untreated plants

| SMILES | pest or weed control at 100 ppm [1, 4] | RHIZSO in vitro Growth Inhibition [2] | USTIMA in vitro Growth Inhibition (Ustilago maydis (USTIMA)) | pest or weed control at 100 ppm ([1]; wheat plants sprayed at 100 ppm, control vs untreated plants) | pest or weed control at 100 ppm [3] |
| --- | --- | --- | --- | --- | --- |
| COc1ccnc(C(=O)NC(COC(=O)CC(C)OC(=O)CCc2ccccc2)C(=O)OC(C)C)c1O (centres unmarked) [Compound 353] | 75 to 100% |  |  |  |  |
| O=C(Nc1ccc(Cl)cc1)c1ncccc1O [Compound 213] | 75 to 100% | − (key: +: at least 80% growth inhibition; −: less than 80% growth inhibition) | − (key: +: at least 80% growth inhibition; −: less than 80% growth inhibition) |  |  |
| COc1ccnc(C(=O)Nc2cccc(Oc3ccc(C(F)(F)F)cc3)n2)c1O [Compound 469] |  |  |  | 75 to 100% |  |
| COc1ccnc(C(=O)N[C@H]2CO[C@@H](C(C)Cc3ccc(C(C)(C)C)cc3)OC2)c1O (some centres unmarked) [Compound 317] | 75 to 100% | − (key: +: at least 80% growth inhibition; −: less than 80% growth inhibition) | − (key: +: at least 80% growth inhibition; −: less than 80% growth inhibition) |  |  |
| COc1ccnc(C(=O)N[C@H]2CC3CC2[C@H](COCc2cccc(C(F)(F)F)c2)C3)c1O (some centres unmarked) [Compound 294] |  | + (key: +: at least 80% growth inhibition; −: less than 80% growth inhibition) | − (key: +: at least 80% growth inhibition; −: less than 80% growth inhibition) |  | 75 to 100% |
| COc1ccnc(C(=O)NC(COC(=O)C(Cc2ccccc2)C(C)O[Si](C)(C)C(C)(C)C)C(=O)OC(C)C)c1O (centres unmarked) [Compound 357] | 75 to 100% |  |  |  |  |
| COc1ccnc(C(=O)NC2CC(C)(C)CC3(C2)CC3(F)F)c1O (centres unmarked) [Compound 255] |  | − (key: +: at least 80% growth inhibition; −: less than 80% growth inhibition) | − (key: +: at least 80% growth inhibition; −: less than 80% growth inhibition) |  | 75 to 100% |
| COC(=O)C(COC(=O)C(COC(=O)C(C)C)Cc1ccccc1)NC(=O)c1nccc(OC)c1O (centres unmarked) [Compound 349] | 75 to 100% |  |  |  |  |
| COc1ccnc(C(=O)N[C@@H](COCc2ccccc2)C(=O)O[C@@H](C)[C@H](OC(=O)C(C)C)[C@@H](Cc2ccccc2)C(=O)OCc2ccccc2)c1O [Compound 342] | 75 to 100% |  |  |  |  |
| COc1ccnc(C(=O)N[C@@H](Cc2ccc(OCc3ccccc3)cc2)C(=O)O)c1O [Compound 337] |  | − (key: +: at least 80% growth inhibition; −: less than 80% growth inhibition) | − (key: +: at least 80% growth inhibition; −: less than 80% growth inhibition) |  | 75 to 100% |
| COc1ccnc(C(=O)N[C@H]2CC[C@H]3C4CCC(CC4)[C@H]3C2=O)c1O [Compound 292] |  | − (key: +: at least 80% growth inhibition; −: less than 80% growth inhibition) | − (key: +: at least 80% growth inhibition; −: less than 80% growth inhibition) |  | 75 to 100% |
| COc1ccnc(C(=O)NC(COC(=O)C(C)Cc2ccccc2)C(=O)OC(C)C)c1O (centres unmarked) [Compound 351] | 75 to 100% |  |  |  |  |
| COc1ccnc(C(=O)NC2CC(C)(C)CC(C)(COCC(Cl)CCl)C2)c1O (centres unmarked) [Compound 257] |  | − (key: +: at least 80% growth inhibition; −: less than 80% growth inhibition) | + (key: +: at least 80% growth inhibition; −: less than 80% growth inhibition) |  | 75 to 100% |
| COc1ccnc(C(=O)N[C@H](C(=O)O[C@@H](C)[C@H](OC(=O)C(C)C)[C@@H](Cc2ccccc2)C(=O)OCc2ccccc2)[C@@H](C)OC(C)=O)c1O [Compound 361] | 75 to 100% |  |  |  |  |
| COc1ccnc(C(=O)NC(COC(=O)CC(C)O[Si](C)(C)C(C)(C)C)C(=O)OC(C)C)c1O (centres unmarked) [Compound 354] | 75 to 100% |  |  |  |  |
| COc1ccnc(C(=O)NC(C)c2ccc(Cl)cc2)c1O (centres unmarked) [Compound 246] |  | − (key: +: at least 80% growth inhibition; −: less than 80% growth inhibition) | − (key: +: at least 80% growth inhibition; −: less than 80% growth inhibition) |  | 75 to 100% |
